Laboratory results taken from patent publication US9233989B2, “Sila analogs of oxazolidinone derivatives and synthesis thereof” (Council of Scientific & Industrial Research, priority 2011, dated 2016).
Values after ≈ are worked out from the molar mass of the structure shown.

Experiments:
[1] = system: E.faecalis ATCC 51299(VRE&HLAR); assay: MIC by microbroth dilution method; format: cell-based
MRSA ATCC 43300 = assay: MIC by microbroth dilution method; format: cell-based, S. aureus
[2] = system: S.aureus ATCC 700699 Mu50; assay: MIC by microbroth dilution method; format: cell-based
S.aureus DB00026 = assay: MIC by microbroth dilution method; format: cell-based
E.faecium ATCC 3567 = assay: MIC by microbroth dilution method; format: cell-based
MRSA ATCC BAA 39 = assay: MIC by microbroth dilution method; format: cell-based, S. aureus
MRSE ATCC 35984 = assay: MIC by microbroth dilution method; format: cell-based, S. epidermidis
MRSA 562 = assay: MIC by microbroth dilution method; format: cell-based, S. aureus
[3] = system: S.aureus 13709 LNZ mutant; format: cell-based
MRSA 0-2657 = assay: MIC by microbroth dilution method; format: cell-based, S. aureus
S.aureus ATCC 29213 = assay: MIC by microbroth dilution method; format: cell-based
E.faecalis SP 346 VRE = assay: MIC by microbroth dilution method; format: cell-based
S.aureus2 (PVL + ve) = format: cell-based, S. aureus
[4] = system: S.aureus ATCC 13709 Smith; assay: MIC by microbroth dilution method; format: cell-based
E.faecium 134 VRE = assay: MIC by microbroth dilution method; format: cell-based
S.epidermis St 358 = assay: MIC by microbroth dilution method; format: cell-based, S. epidermidis
MRSA DB 00026 = assay: MIC by microbroth dilution method; format: cell-based, S. aureus
E.faecalis ATCC 19433 = assay: MIC by microbroth dilution method; format: cell-based
E.coli 7632 = assay: MIC by microbroth dilution method; format: cell-based
MRSE ATCC 35983 = assay: MIC by microbroth dilution method; format: cell-based, S. epidermidis
S.epidermidis ATCC 14990 = assay: MIC by microbroth dilution method; format: cell-based
[5] = system: S.aureus ATCC 49775 PVL + ve; format: cell-based
MRSA 252 BAA 1720 = assay: MIC by microbroth dilution method; format: cell-based, S. aureus
E.faecium ATCC 19434 = assay: MIC by microbroth dilution method; format: cell-based
E.faecalis ATCC 29212 = assay: MIC by microbroth dilution method; format: cell-based
E.faecium ATCC 49224 = assay: MIC by microbroth dilution method; format: cell-based
[6] = system: S.aureus ATCC Newman 25904; assay: MIC by microbroth dilution method; format: cell-based
E.faecium 06076 VRE = assay: MIC by microbroth dilution method; format: cell-based
E.faecium ATCC 35667 = assay: MIC by microbroth dilution method; format: cell-based
E.faecium 6A VRE = assay: MIC by microbroth dilution method; format: cell-based
[7] = system: Mycobacterium tuberculosis H37Rv; assay: Anti-TB activity, colorimetric resazurin microtiter assay; format: cell-based; conditions: for MIC: Mycobacterium tuberculosis, H37RV, read-out: MIC, Minimum Inhibitory Concentration (90%)
S.epidermidis ATCC 12228 = assay: MIC by microbroth dilution method; format: cell-based

| SMILES | MIC [1] | MIC [2] | MIC (E.faecium ATCC 3567) | MIC (MRSA ATCC BAA 39) | MIC (MRSE ATCC 35984) | MIC (MRSA 562) | MIC [3] | MIC (MRSA 0-2657) | MIC (S.aureus ATCC 29213) | MIC (E.faecalis SP 346 VRE) | MIC [4] | MIC (E.faecium 134 VRE) | MIC (S.epidermis St 358) | MIC (MRSA DB 00026) | MIC (E.faecalis ATCC 19433) | MIC (E.coli 7632) | MIC (MRSE ATCC 35983) | MIC (S.epidermidis ATCC 14990) | MIC [5] | MIC (E.faecium ATCC 19434) | further results |
| --- | --- | --- | --- | --- | --- | --- | --- | --- | --- | --- | --- | --- | --- | --- | --- | --- | --- | --- | --- | --- | --- |
| CC(=O)NC[C@H]1CN(c2ccc(N3CCOCC3)c(F)c2)C(=O)O1 [Linezolid, (S)—N-({3-[3-fluoro-4-(morpholin-4-yl)phenyl]-2-oxo-1,3-oxazolidin-5-yl}methyl)acetamide, reference compound] | 1 µg/mL (≈ 2.96 µM) | 2 µg/mL (≈ 5.93 µM) | 2 µg/mL (≈ 5.93 µM) | 2 µg/mL (≈ 5.93 µM) | 1 µg/mL (≈ 2.96 µM) | 2 µg/mL (≈ 5.93 µM) | 2 µg/mL (≈ 5.93 µM) | 1 µg/mL (≈ 2.96 µM) | 2 µg/mL (≈ 5.93 µM) | 2 µg/mL (≈ 5.93 µM) | 2 µg/mL (≈ 5.93 µM) | 2 µg/mL (≈ 5.93 µM) | 2 µg/mL (≈ 5.93 µM) | 2 µg/mL (≈ 5.93 µM) | 1 µg/mL (≈ 2.96 µM) | 1 µg/mL (≈ 2.96 µM) | 1 µg/mL (≈ 2.96 µM) | 2 µg/mL (≈ 5.93 µM) | 2 µg/mL (≈ 5.93 µM) | 2 µg/mL (≈ 5.93 µM) | MIC (MRSA ATCC 43300): 4 µg/mL (≈ 11.9 µM); MIC (S.aureus DB00026): 1 µg/mL (≈ 2.96 µM); MIC (S.aureus2 (PVL + ve)): 2 µg/mL (≈ 5.93 µM); MIC (MRSA 252 BAA 1720): 1 µg/mL (≈ 2.96 µM); MIC (E.faecalis ATCC 29212): 0.5 µg/mL (≈ 1.48 µM); MIC (E.faecium ATCC 49224): 2 µg/mL (≈ 5.93 µM); MIC [6]: 2 µg/mL (≈ 5.93 µM); MIC (E.faecium 06076 VRE): 2 µg/mL (≈ 5.93 µM); MIC (E.faecium ATCC 35667): 4 µg/mL (≈ 11.9 µM); MIC (E.faecium 6A VRE): 2 µg/mL (≈ 5.93 µM) |
| CC(=O)NC[C@H]1CN(c2ccc(N3CC[Si](C)(C)CC3)c(F)c2)C(=O)O1 [NDS-10024, (S)—N-((3-(4-(4,4-dimethyl-1,4-azasilinan-1-yl)-3-fluorophenyl)-2-oxooxazolidin-5-yl)methyl)acetamide] | 16 µg/mL (≈ 42.2 µM) | 8 µg/mL (≈ 21.1 µM) | 16 µg/mL (≈ 42.2 µM) | 16 µg/mL (≈ 42.2 µM) | 8 µg/mL (≈ 21.1 µM) | 16 µg/mL (≈ 42.2 µM) | > 16 µg/mL | 8 µg/mL (≈ 21.1 µM) | 16 µg/mL (≈ 42.2 µM) | 16 µg/mL (≈ 42.2 µM) | 16 µg/mL (≈ 42.2 µM) | 16 µg/mL (≈ 42.2 µM) | 8 µg/mL (≈ 21.1 µM) | 16 µg/mL (≈ 42.2 µM) | 16 µg/mL (≈ 42.2 µM) | > 32 µg/mL | 8 µg/mL (≈ 21.1 µM) | 8 µg/mL (≈ 21.1 µM) | 16 µg/mL (≈ 42.2 µM) | 16 µg/mL (≈ 42.2 µM) | MIC (MRSA ATCC 43300): 16 µg/mL (≈ 42.2 µM); MIC (S.aureus DB00026): 16 µg/mL (≈ 42.2 µM); anti-tubercular activity (in words) ([7]; Mycobacterium tuberculosis H37Rv): good anti-tubercular activity; MIC [7]: 6.25 µg/mL (≈ 16.5 µM); MIC (S.aureus2 (PVL + ve)): 16 µg/mL (≈ 42.2 µM); MIC (S.epidermidis ATCC 12228): 8 µg/mL (≈ 21.1 µM); MIC (MRSA 252 BAA 1720): 16 µg/mL (≈ 42.2 µM); MIC (E.faecalis ATCC 29212): 16 µg/mL (≈ 42.2 µM); MIC (E.faecium ATCC 49224): 8 µg/mL (≈ 21.1 µM); MIC [6]: 16 µg/mL (≈ 42.2 µM); MIC (E.faecium 06076 VRE): 16 µg/mL (≈ 42.2 µM); MIC (E.faecium ATCC 35667): 8 µg/mL (≈ 21.1 µM); MIC (E.faecium 6A VRE): 16 µg/mL (≈ 42.2 µM) |
| CC(=O)NCC1CN(c2ccc(N3CC[Si](C)(C)CC3)c(F)c2)C(=O)O1 (stereo not shown) [NDS-10026, N-((3-(4-(4,4-dimethyl-1,4-azasilinan-1-yl)-3-fluorophenyl)-2-oxooxazolidin-5-yl)methy)acetamide] | 16 µg/mL (≈ 42.2 µM) | 16 µg/mL (≈ 42.2 µM) | > 16 µg/mL | 16 µg/mL (≈ 42.2 µM) | 16 µg/mL (≈ 42.2 µM) | 16 µg/mL (≈ 42.2 µM) | > 16 µg/mL | 16 µg/mL (≈ 42.2 µM) | 16 µg/mL (≈ 42.2 µM) | > 16 µg/mL | > 16 µg/mL | 16 µg/mL (≈ 42.2 µM) | > 16 µg/mL | > 16 µg/mL | > 16 µg/mL | > 32 µg/mL | 16 µg/mL (≈ 42.2 µM) | 16 µg/mL (≈ 42.2 µM) | > 16 µg/mL | > 16 µg/mL | MIC (MRSA ATCC 43300): 32 µg/mL (≈ 84.3 µM); MIC (S.aureus DB00026): 32 µg/mL (≈ 84.3 µM); MIC, Minimum Inhibitory Concentration (90%) ([7]; inhibition of Mycobacterium tuberculosis H37Rv growth, 7H9-OADC media, 37° C., visual readout): 50 µg/mL (≈ 132 µM); MIC (S.aureus2 (PVL + ve)): 32 µg/mL (≈ 84.3 µM); MIC (S.epidermidis ATCC 12228): 16 µg/mL (≈ 42.2 µM); MIC (MRSA 252 BAA 1720): 32 µg/mL (≈ 84.3 µM); MIC (E.faecalis ATCC 29212): > 16 µg/mL; MIC (E.faecium ATCC 49224): 8 µg/mL (≈ 21.1 µM); MIC [6]: 32 µg/mL (≈ 84.3 µM); MIC (E.faecium 06076 VRE): > 16 µg/mL; MIC (E.faecium ATCC 35667): 8 µg/mL (≈ 21.1 µM); MIC (E.faecium 6A VRE): 16 µg/mL (≈ 42.2 µM) |
| CC(=O)NC[C@H]1CN(c2cc(F)c(N3CC[Si](C)(C)CC3)c(F)c2)C(=O)O1 [NDS-10028, (S)—N-((3-(4-(4,4-dimethyl-1,4-azasilinan-1-yl)-3,5-difluorophenyl)-2-oxooxazolidin-5-yl)methyl)acetamide] | 8 µg/mL (≈ 20.1 µM) | 8 µg/mL (≈ 20.1 µM) | 16 µg/mL (≈ 40.3 µM) | 8 µg/mL (≈ 20.1 µM) | 8 µg/mL (≈ 20.1 µM) | 8 µg/mL (≈ 20.1 µM) | > 16 µg/mL | 8 µg/mL (≈ 20.1 µM) | > 16 µg/mL | 8 µg/mL (≈ 20.1 µM) | 8 µg/mL (≈ 20.1 µM) | 8 µg/mL (≈ 20.1 µM) | 8 µg/mL (≈ 20.1 µM) | 8 µg/mL (≈ 20.1 µM) | 16 µg/mL (≈ 40.3 µM) | > 32 µg/mL | 4 µg/mL (≈ 10.1 µM) | 4 µg/mL (≈ 10.1 µM) | 16 µg/mL (≈ 40.3 µM) | 8 µg/mL (≈ 20.1 µM) | MIC (MRSA ATCC 43300): > 32 µg/mL; MIC (S.aureus DB00026): > 32 µg/mL; MIC [7]: > 50 µg/mL; MIC (S.aureus2 (PVL + ve)): > 32 µg/mL; MIC (S.epidermidis ATCC 12228): 4 µg/mL (≈ 10.1 µM); MIC (MRSA 252 BAA 1720): > 32 µg/mL; MIC (E.faecalis ATCC 29212): 8 µg/mL (≈ 20.1 µM); MIC (E.faecium ATCC 49224): 8 µg/mL (≈ 20.1 µM); MIC [6]: > 32 µg/mL; MIC (E.faecium 06076 VRE): 8 µg/mL (≈ 20.1 µM); MIC (E.faecium ATCC 35667): 8 µg/mL (≈ 20.1 µM); MIC (E.faecium 6A VRE): 4 µg/mL (≈ 10.1 µM) |
| CC(C)(C)OC(=O)NC[C@H]1CN(c2cc(F)c(N3CC[Si](C)(C)CC3)c(F)c2)C(=O)O1 [NDS-10031, (S)-tert-butyl((3-(4-(4,4-dimethyl-1,4-azasilinan-1-yl)-3,5-difluorophenyl)-2-oxooxazolidin-5-yl)methyl)carbamate] | > 16 µg/mL | > 16 µg/mL | > 16 µg/mL | > 16 µg/mL | > 16 µg/mL | > 16 µg/mL | > 16 µg/mL | > 16 µg/mL | > 16 µg/mL | > 16 µg/mL | > 16 µg/mL | > 16 µg/mL | > 16 µg/mL | > 16 µg/mL | > 16 µg/mL | > 32 µg/mL | > 16 µg/mL | > 16 µg/mL | > 16 µg/mL | > 16 µg/mL | MIC (S.epidermidis ATCC 12228): > 16 µg/mL; MIC (E.faecalis ATCC 29212): > 16 µg/mL; MIC (E.faecium 06076 VRE): > 16 µg/mL; MIC (E.faecium 6A VRE): > 16 µg/mL |
